Columns and labels:
TRPC4β-I575V-SYFP2 = molecular target: T1, TRPC4β-I575V-SYFP2 (Homo sapiens, UniProt Q9UBN4, I575V); test: Fura-2 [Ca2+]i recordings, HEK 293 transiently expressing TRPC4β-I575V-SYFP2; type: cell-based; details: AzHC 10-1000 nM, AM237 100 nM
T1 construct: expressed in transfected cells; host or cells: HEK 293 (ATCC CRL 1573), transiently transfected (jetPRIME)
Source text: Müller, Niemeyer, et al., Schaefer & Thorn-Seshold 2025: Ideal Efficacy Photoswitching of TRPC4/5 in Tissue […]
1.4.3 Note on TRPC4 / TRPC5 Sequence Alignment
The key contact residues of interest in the ligand binding site are highly conserved between TRPC4 and TRPC5. The relevant sequences in the site are: […]
1.4.4 Differences and selectivity between TRPC5 and TRPC4?
AM237 activates TRPC5 but inhibits EA mediated activation of TRPC4; Pico145 inhibits both TRPC4 and TRPC5. Thus, somewhat naively, it could be argued that it is the para substituent here which affects both the efficacy mode and the selectivity for TRPC4 and/or TRPC5.
Intriguingly, Z-AzPico activates TRPC4 and TRPC5 with low nanomolar potency whereas Z-AzHC only activates TRPC5 but not TRPC4. Therefore, the meta substituent is now responsible for the selectivity in this case. The cryo-EM structures of Pico145 and HC-070 in complex with TRPC5 indicated the same binding site but the southern phenyl ring bearing the OCF3/Cl group is flipped and pointing in opposite directions.
Z isomers, i.e. Z-buried vs. E-projected. Additionally, both E-AzPico and E-AzHC inhibit EA […]
Intracellular calcium ([Ca2+]i) was measured using the ratiometric Ca2+ dye Fura-2. […]

PSS E/Z ratios by HPLC = type: physicochemical; details: for PSS % E at 330 nm / PSS % E at 340 nm / PSS % E at 350 nm / PSS % E at 360 nm / PSS % E at 370 nm / PSS % E at 380 nm / PSS % E at 390 nm / PSS % E at 400 nm / PSS % E at 410 nm / PSS % E at 420 nm / PSS % E at 430 nm / PSS % E at 440 nm / PSS % E at 450 nm / PSS % E at 460 nm / PSS % E at 470 nm / PSS % E at 480 nm / PSS % E at 490 nm / PSS % E at 500 nm / PSS % Z at 330 nm / PSS % Z at 340 nm / PSS % Z at 350 nm / PSS % Z at 360 nm / PSS % Z at 370 nm / PSS % Z at 380 nm / PSS % Z at 390 nm / PSS % Z at 400 nm / PSS % Z at 410 nm / PSS % Z at 420 nm / PSS % Z at 430 nm / PSS % Z at 440 nm / PSS % Z at 450 nm / PSS % Z at 460 nm / PSS % Z at 470 nm / PSS % Z at 480 nm / PSS % Z at 490 nm / PSS % Z at 500 nm: monochromator, HPLC integration (296 nm)
Experimental: UV-VIS. UV-Vis spectra were recorded on an Agilent Cary 60 UV-Vis spectrophotometer using 1 cm quartz or PMMA cuvettes. All photoisomerisations were performed at room temperature in non-degassed solvents unless stated differently. Samples were irradiated with either a CoolLED pE-4000 or Polycon V monochromator (TILL Photonics, Gräfelfing, Germany) by shining from the […]
differently, all measurements were performed at a default concentration of 20 μM. Dark state refers […]
methods followed standard practices39–41. All-E and PSS spectra are shown in Supplementary […]
HPLC for PSS E/Z ratios. Analytical HPLC was performed on an Agilent 1200 SL with (a) a binary pump able to deliver H2O:MeCN eluent mixtures containing 0.1% formic acid at a 1 mL/min flow rate [for PSS measurements of final compounds, only MeCN was used], (b) YMC Carotenoid 5 µm, […]
(100 µM, MeCN) in HPLC vials were irradiated for at least 6 min from top with the monochromator […]
separate well); PSS ratio was then determined by integrating the signal at an isosbestic region

T1 sequence (Q9UBN4 other isoform, or with tags, fused parts or gaps I575V): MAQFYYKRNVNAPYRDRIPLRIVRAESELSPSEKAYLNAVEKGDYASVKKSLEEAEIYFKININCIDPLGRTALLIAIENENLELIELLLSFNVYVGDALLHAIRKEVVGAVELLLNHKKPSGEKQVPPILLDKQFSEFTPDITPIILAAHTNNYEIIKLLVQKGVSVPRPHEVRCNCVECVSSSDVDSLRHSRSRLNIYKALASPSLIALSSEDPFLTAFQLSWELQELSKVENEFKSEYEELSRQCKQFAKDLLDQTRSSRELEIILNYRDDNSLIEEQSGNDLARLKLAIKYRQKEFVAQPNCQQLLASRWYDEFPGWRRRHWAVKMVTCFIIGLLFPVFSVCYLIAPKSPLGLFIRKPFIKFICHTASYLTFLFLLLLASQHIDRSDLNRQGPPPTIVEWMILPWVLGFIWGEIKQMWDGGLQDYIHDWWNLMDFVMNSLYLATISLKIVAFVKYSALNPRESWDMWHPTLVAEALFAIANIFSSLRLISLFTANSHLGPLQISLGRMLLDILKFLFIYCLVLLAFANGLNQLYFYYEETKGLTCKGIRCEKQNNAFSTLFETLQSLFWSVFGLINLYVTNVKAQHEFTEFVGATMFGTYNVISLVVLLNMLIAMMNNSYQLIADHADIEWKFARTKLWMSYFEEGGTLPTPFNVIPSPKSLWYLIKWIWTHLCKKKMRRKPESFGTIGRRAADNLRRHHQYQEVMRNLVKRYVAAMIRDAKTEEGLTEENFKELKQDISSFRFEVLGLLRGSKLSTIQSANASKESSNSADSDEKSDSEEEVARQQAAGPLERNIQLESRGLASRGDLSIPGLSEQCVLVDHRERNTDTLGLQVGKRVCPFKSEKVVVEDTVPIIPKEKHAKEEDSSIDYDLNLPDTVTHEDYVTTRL

Row | PSS %E around 410 nm (PSS E/Z ratios by HPLC) | PSS %Z around 360 nm (PSS E/Z ratios by HPLC) [%] | PSS % E at 330 nm (PSS E/Z ratios by HPLC) [%] | PSS % E at 340 nm (PSS E/Z ratios by HPLC) [%] | PSS % E at 350 nm (PSS E/Z ratios by HPLC) [%] | PSS % E at 360 nm (PSS E/Z ratios by HPLC) [%] | PSS % E at 370 nm (PSS E/Z ratios by HPLC) [%] | PSS % E at 380 nm (PSS E/Z ratios by HPLC) [%] | PSS % E at 390 nm (PSS E/Z ratios by HPLC) [%] | PSS % E at 400 nm (PSS E/Z ratios by HPLC) [%] | PSS % E at 410 nm (PSS E/Z ratios by HPLC) [%] | PSS % E at 420 nm (PSS E/Z ratios by HPLC) [%] | PSS % E at 430 nm (PSS E/Z ratios by HPLC) [%] | PSS % E at 440 nm (PSS E/Z ratios by HPLC) [%] | PSS % E at 450 nm (PSS E/Z ratios by HPLC) [%] | PSS % E at 460 nm (PSS E/Z ratios by HPLC) [%] | PSS % E at 470 nm (PSS E/Z ratios by HPLC) [%] | PSS % E at 480 nm (PSS E/Z ratios by HPLC) [%] | PSS % E at 490 nm (PSS E/Z ratios by HPLC) [%] | SMILES | Effect on [Ca2+]i, TRPC4I575V (TRPC4β-I575V-SYFP2) | other results
1 | – | – | – | – | – | – | – | – | – | – | – | – | – | – | – | – | – | – | – | Cn1c(=O)n(CCCO)c(=O)c2c1nc(Oc1ccc(Cl)c(OC(F)(F)F)c1)n2Cc1ccc(Cl)cc1 [AM237, reference compound] | do not activate | –
2 | ~ 82% | 95 | 21 | 6 | 4 | 4 | 7 | 23 | 52 | 74 | 81 | 80 | 79 | 76 | 72 | 68 | 63 | 59 | 55 | Cn1c(=O)n(CCCO)c(=O)c2c1nc(Oc1ccc(N=Nc3ccccc3)c(Cl)c1)n2Cc1ccc(Cl)cc1 [AzHC] | – | PSS % E at 500 nm (PSS E/Z ratios by HPLC): 52%; PSS % Z at 330 nm (PSS E/Z ratios by HPLC): 79%; PSS % Z at 340 nm (PSS E/Z ratios by HPLC): 94%; PSS % Z at 350 nm (PSS E/Z ratios by HPLC): 96%; PSS % Z at 360 nm (PSS E/Z ratios by HPLC): 96%; PSS % Z at 370 nm (PSS E/Z ratios by HPLC): 93%; PSS % Z at 380 nm (PSS E/Z ratios by HPLC): 78%; PSS % Z at 390 nm (PSS E/Z ratios by HPLC): 48%; PSS % Z at 400 nm (PSS E/Z ratios by HPLC): 26%; PSS % Z at 410 nm (PSS E/Z ratios by HPLC): 19%; PSS % Z at 420 nm (PSS E/Z ratios by HPLC): 20%; PSS % Z at 430 nm (PSS E/Z ratios by HPLC): 21%; PSS % Z at 440 nm (PSS E/Z ratios by HPLC): 24%; PSS % Z at 450 nm (PSS E/Z ratios by HPLC): 28%; PSS % Z at 460 nm (PSS E/Z ratios by HPLC): 32%; PSS % Z at 470 nm (PSS E/Z ratios by HPLC): 37%; PSS % Z at 480 nm (PSS E/Z ratios by HPLC): 41%; PSS % Z at 490 nm (PSS E/Z ratios by HPLC): 45%; PSS % Z at 500 nm (PSS E/Z ratios by HPLC): 48%
3 | ~ 82% | 95 | 16 | 8 | 5 | 5 | 11 | 23 | 38 | 79 | 84 | 84 | 82 | 80 | 77 | 74 | 70 | 67 | 64 | Cn1c(=O)n(CCCO)c(=O)c2c1nc(Oc1ccc(N=Nc3ccccc3)c(OC(F)(F)F)c1)n2Cc1ccc(Cl)cc1 [AzPico] | – | PSS % E at 500 nm (PSS E/Z ratios by HPLC): 61%; PSS % Z at 330 nm (PSS E/Z ratios by HPLC): 84%; PSS % Z at 340 nm (PSS E/Z ratios by HPLC): 92%; PSS % Z at 350 nm (PSS E/Z ratios by HPLC): 95%; PSS % Z at 360 nm (PSS E/Z ratios by HPLC): 95%; PSS % Z at 370 nm (PSS E/Z ratios by HPLC): 89%; PSS % Z at 380 nm (PSS E/Z ratios by HPLC): 77%; PSS % Z at 390 nm (PSS E/Z ratios by HPLC): 62%; PSS % Z at 400 nm (PSS E/Z ratios by HPLC): 21%; PSS % Z at 410 nm (PSS E/Z ratios by HPLC): 16%; PSS % Z at 420 nm (PSS E/Z ratios by HPLC): 16%; PSS % Z at 430 nm (PSS E/Z ratios by HPLC): 18%; PSS % Z at 440 nm (PSS E/Z ratios by HPLC): 20%; PSS % Z at 450 nm (PSS E/Z ratios by HPLC): 23%; PSS % Z at 460 nm (PSS E/Z ratios by HPLC): 27%; PSS % Z at 470 nm (PSS E/Z ratios by HPLC): 30%; PSS % Z at 480 nm (PSS E/Z ratios by HPLC): 33%; PSS % Z at 490 nm (PSS E/Z ratios by HPLC): 36%; PSS % Z at 500 nm (PSS E/Z ratios by HPLC): 39%
4 | – | – | – | – | – | – | – | – | – | – | – | – | – | – | – | – | – | – | – | Cn1c(=O)n(CCCO)c(=O)c2c1nc(Oc1ccc(/N=N\c3ccccc3)c(Cl)c1)n2Cc1ccc(Cl)cc1 [Z*-AzHC] | do not activate | –

Source: article PMC12858405, “Ideal efficacy photoswitching for chromocontrol of TRPC4/5 channel functions in live tissues” (Nature Chemical Biology, 2026)
